Where two headings read alike, the source gives them in different places.
Key:
[1] = system: mantle cell lymphoma (Granta-519, Mino, and Jeko-1); experiment: Cell viability (cytotoxicity) assay, mantle cell lymphoma cells; type: cell-based; conditions: Homo sapiens; 48 hours, CCK8 or Alamar Blue; curves of Fig. 1f-j; read-out: Half maximal inhibitory concentration (IC50) in cell line cytotoxicity assays, Mantle Cell Lymphoma
kinome (kinase panel) [2] = target: T1, kinome (kinase panel) (Homo sapiens, UniProt O15530); experiment: KINOMEscan assay (Eurofins DiscoverX); type: binding; conditions: PDPK1; 1000 nM; read-out: Percent Control
T1 construct: purchased Eurofins DiscoverX

kinome (kinase panel) [3] = target: T2, kinome (kinase panel) (Homo sapiens, UniProt O43353); experiment: KINOMEscan assay (Eurofins DiscoverX); type: binding; conditions: RIPK2; 1000 nM; read-out: Percent Control
T2 construct: purchased Eurofins DiscoverX

kinome (kinase panel) [4] = target: T3, kinome (kinase panel) (Homo sapiens, UniProt O95747); experiment: KINOMEscan assay (Eurofins DiscoverX); type: binding; conditions: OSR1 (Entrez OXSR1); 1000 nM; read-out: Percent Control
T3 construct: purchased Eurofins DiscoverX

kinome (kinase panel) [5] = target: T4, kinome (kinase panel) (Homo sapiens, UniProt O96017); experiment: KINOMEscan assay (Eurofins DiscoverX); type: binding; conditions: CHEK2; 1000 nM; read-out: Percent Control
T4 construct: purchased Eurofins DiscoverX

kinome (kinase panel) [6] = target: T5, kinome (kinase panel) (Homo sapiens, UniProt P00533, G719S); experiment: KINOMEscan assay (Eurofins DiscoverX); type: binding; conditions: […]; 1000 nM; read-out: Percent Control
T5 construct: purchased Eurofins DiscoverX

kinome (kinase panel) [7] = target: T6, kinome (kinase panel) (Homo sapiens, UniProt P00533, L858R/T790M); experiment: KINOMEscan assay (Eurofins DiscoverX); type: binding; conditions: read-out: Percent Control
T6 construct: purchased Eurofins DiscoverX

kinome (kinase panel) [8] = target: T7, kinome (kinase panel) (Homo sapiens, UniProt P07949, M918T); experiment: KINOMEscan assay (Eurofins DiscoverX); type: binding; conditions: read-out: Percent Control
T7 construct: purchased Eurofins DiscoverX

kinome (kinase panel) [9] = target: T8, kinome (kinase panel) (Homo sapiens, UniProt P09769); experiment: KINOMEscan assay (Eurofins DiscoverX); type: binding; conditions: FGR; 1000 nM; read-out: Percent Control
T8 construct: purchased Eurofins DiscoverX

kinome (kinase panel) [10] = target: T9, kinome (kinase panel) (Homo sapiens, UniProt P14616); experiment: KINOMEscan assay (Eurofins DiscoverX); type: binding; conditions: INSRR; 1000 nM; read-out: Percent Control
T9 construct: purchased Eurofins DiscoverX

kinome (kinase panel) [11] = target: T10, kinome (kinase panel) (Homo sapiens, UniProt P19525); experiment: KINOMEscan assay (Eurofins DiscoverX); type: binding; conditions: PRKR (Entrez EIF2AK2); 1000 nM; read-out: Percent Control
T10 construct: purchased Eurofins DiscoverX

kinome (kinase panel) [12] = target: T11, kinome (kinase panel) (Homo sapiens, UniProt P23458); experiment: KINOMEscan assay (Eurofins DiscoverX); type: binding; conditions: 1000 nM, read-out: Percent Control
T11 construct: purchased Eurofins DiscoverX

kinome (kinase panel) [13] = target: T12, kinome (kinase panel) (Homo sapiens, UniProt P24723); experiment: KINOMEscan assay (Eurofins DiscoverX); type: binding; conditions: PRKCH; 1000 nM; read-out: Percent Control
T12 construct: purchased Eurofins DiscoverX

kinome (kinase panel) [14] = target: T13, kinome (kinase panel) (Homo sapiens, UniProt P37023); experiment: KINOMEscan assay (Eurofins DiscoverX); type: binding; conditions: ACVRL1; 1000 nM; read-out: Percent Control
T13 construct: purchased Eurofins DiscoverX

kinome (kinase panel) [15] = target: T14, kinome (kinase panel) (Homo sapiens, UniProt P41240); experiment: KINOMEscan assay (Eurofins DiscoverX); type: binding; conditions: CSK; 1000 nM; read-out: Percent Control
T14 construct: purchased Eurofins DiscoverX

kinome (kinase panel) [16] = target: T15, kinome (kinase panel) (Homo sapiens, UniProt P42345); experiment: KINOMEscan assay (Eurofins DiscoverX); type: binding; conditions: MTOR; 1000 nM; read-out: Percent Control
T15 construct: purchased Eurofins DiscoverX

kinome (kinase panel) [17] = target: T16, kinome (kinase panel) (Homo sapiens, UniProt P45984); experiment: KINOMEscan assay (Eurofins DiscoverX); type: binding; conditions: JNK2 (Entrez MAPK9); 1000 nM; read-out: Percent Control
T16 construct: purchased Eurofins DiscoverX

kinome (kinase panel) [18] = target: T17, kinome (kinase panel) (Homo sapiens, UniProt P54753); experiment: KINOMEscan assay (Eurofins DiscoverX); type: binding; conditions: EPHB3; 1000 nM; read-out: Percent Control
T17 construct: purchased Eurofins DiscoverX

kinome (kinase panel) [19] = target: T18, kinome (kinase panel) (Homo sapiens, UniProt Q06418); experiment: KINOMEscan assay (Eurofins DiscoverX); type: binding; conditions: TYRO3; 1000 nM; read-out: Percent Control
T18 construct: purchased Eurofins DiscoverX

kinome (kinase panel) [20] = target: T19, kinome (kinase panel) (Homo sapiens, UniProt Q14164); experiment: KINOMEscan assay (Eurofins DiscoverX); type: binding; conditions: IKK-epsilon (Entrez IKBKE); 1000 nM; read-out: Percent Control
T19 construct: purchased Eurofins DiscoverX

kinome (kinase panel) [21] = target: T20, kinome (kinase panel) (Homo sapiens, UniProt Q6P2M8); experiment: KINOMEscan assay (Eurofins DiscoverX); type: binding; conditions: CAMK1B (Entrez PNCK); 1000 nM; read-out: Percent Control
T20 construct: purchased Eurofins DiscoverX

kinome (kinase panel) [22] = target: T21, kinome (kinase panel) (Homo sapiens, UniProt Q8NE63); experiment: KINOMEscan assay (Eurofins DiscoverX); type: binding; conditions: HIPK4; 1000 nM; read-out: Percent Control
T21 construct: purchased Eurofins DiscoverX

kinome (kinase panel) [23] = target: T22, kinome (kinase panel) (Homo sapiens, UniProt Q8NG66); experiment: KINOMEscan assay (Eurofins DiscoverX); type: binding; conditions: NEK11; 1000 nM; read-out: Percent Control
T22 construct: purchased Eurofins DiscoverX

kinome (kinase panel) [24] = target: T23, kinome (kinase panel) (Homo sapiens, UniProt Q96RR4); experiment: KINOMEscan assay (Eurofins DiscoverX); type: binding; conditions: CAMKK2; 1000 nM; read-out: Percent Control
T23 construct: purchased Eurofins DiscoverX

kinome (kinase panel) [25] = target: T24, kinome (kinase panel) (Homo sapiens, UniProt Q9BYT3); experiment: KINOMEscan assay (Eurofins DiscoverX); type: binding; conditions: STK33; 1000 nM; read-out: Percent Control
T24 construct: purchased Eurofins DiscoverX

kinome (kinase panel) [26] = target: T25, kinome (kinase panel) (Homo sapiens, UniProt Q9H2X6); experiment: KINOMEscan assay (Eurofins DiscoverX); type: binding; conditions: HIPK2; 1000 nM; read-out: Percent Control
T25 construct: purchased Eurofins DiscoverX

kinome (kinase panel) [27] = target: T26, kinome (kinase panel) (Homo sapiens, UniProt Q9H4A3); experiment: KINOMEscan assay (Eurofins DiscoverX); type: binding; conditions: WNK1; 1000 nM; read-out: Percent Control
T26 construct: purchased Eurofins DiscoverX

kinome (kinase panel) [28] = target: T27, kinome (kinase panel) (Homo sapiens, UniProt Q9NQU5); experiment: KINOMEscan assay (Eurofins DiscoverX); type: binding; conditions: PAK6; 1000 nM; read-out: Percent Control
T27 construct: purchased Eurofins DiscoverX

kinome (kinase panel) [29] = target: T28, kinome (kinase panel) (Homo sapiens, UniProt Q9P286); experiment: KINOMEscan assay (Eurofins DiscoverX); type: binding; conditions: PAK7; 1000 nM; read-out: Percent Control
T28 construct: purchased Eurofins DiscoverX

kinome (kinase panel) [30] = target: T29, kinome (kinase panel) (Homo sapiens, UniProt Q9UF33); experiment: KINOMEscan assay (Eurofins DiscoverX); type: binding; conditions: EPHA6; 1000 nM; read-out: Percent Control
T29 construct: purchased Eurofins DiscoverX

kinome (kinase panel) [31] = target: T30, kinome (kinase panel) (Homo sapiens, UniProt Q9Y243); experiment: KINOMEscan assay (Eurofins DiscoverX); type: binding; conditions: AKT3; 1000 nM; read-out: Percent Control
T30 construct: purchased Eurofins DiscoverX

bromodomain panel = experiment: BROMOscan assay (Eurofins DiscoverX); type: binding

T11 sequence (P23458 whole entry): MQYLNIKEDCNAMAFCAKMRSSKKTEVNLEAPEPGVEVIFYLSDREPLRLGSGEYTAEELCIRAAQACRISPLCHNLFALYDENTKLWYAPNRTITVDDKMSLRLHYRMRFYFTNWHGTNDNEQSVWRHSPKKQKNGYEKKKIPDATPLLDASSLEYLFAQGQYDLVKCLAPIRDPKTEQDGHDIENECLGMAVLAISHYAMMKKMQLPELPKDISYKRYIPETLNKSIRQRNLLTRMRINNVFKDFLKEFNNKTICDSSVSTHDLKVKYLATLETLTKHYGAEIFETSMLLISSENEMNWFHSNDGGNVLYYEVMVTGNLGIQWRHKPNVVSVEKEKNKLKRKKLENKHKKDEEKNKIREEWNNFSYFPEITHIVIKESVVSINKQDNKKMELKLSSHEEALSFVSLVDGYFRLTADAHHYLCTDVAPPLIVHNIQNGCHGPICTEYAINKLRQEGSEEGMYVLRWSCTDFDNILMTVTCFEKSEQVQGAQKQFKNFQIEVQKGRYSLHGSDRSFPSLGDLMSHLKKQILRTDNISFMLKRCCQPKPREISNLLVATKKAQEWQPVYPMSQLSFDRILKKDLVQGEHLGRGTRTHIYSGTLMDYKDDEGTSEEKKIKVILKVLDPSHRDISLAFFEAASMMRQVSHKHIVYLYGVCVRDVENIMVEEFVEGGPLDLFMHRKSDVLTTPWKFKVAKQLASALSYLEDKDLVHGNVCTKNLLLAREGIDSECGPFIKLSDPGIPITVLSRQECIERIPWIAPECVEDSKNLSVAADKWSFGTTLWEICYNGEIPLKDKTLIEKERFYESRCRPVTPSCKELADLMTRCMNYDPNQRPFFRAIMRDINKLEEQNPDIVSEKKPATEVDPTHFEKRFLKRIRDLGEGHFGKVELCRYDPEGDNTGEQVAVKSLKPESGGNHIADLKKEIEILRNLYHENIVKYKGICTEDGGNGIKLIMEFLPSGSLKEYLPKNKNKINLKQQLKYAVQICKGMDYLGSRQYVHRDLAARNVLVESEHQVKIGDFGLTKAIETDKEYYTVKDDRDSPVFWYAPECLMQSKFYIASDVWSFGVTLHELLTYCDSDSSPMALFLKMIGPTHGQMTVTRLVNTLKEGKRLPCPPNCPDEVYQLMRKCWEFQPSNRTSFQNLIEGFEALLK
T13 sequence (P37023 22-503): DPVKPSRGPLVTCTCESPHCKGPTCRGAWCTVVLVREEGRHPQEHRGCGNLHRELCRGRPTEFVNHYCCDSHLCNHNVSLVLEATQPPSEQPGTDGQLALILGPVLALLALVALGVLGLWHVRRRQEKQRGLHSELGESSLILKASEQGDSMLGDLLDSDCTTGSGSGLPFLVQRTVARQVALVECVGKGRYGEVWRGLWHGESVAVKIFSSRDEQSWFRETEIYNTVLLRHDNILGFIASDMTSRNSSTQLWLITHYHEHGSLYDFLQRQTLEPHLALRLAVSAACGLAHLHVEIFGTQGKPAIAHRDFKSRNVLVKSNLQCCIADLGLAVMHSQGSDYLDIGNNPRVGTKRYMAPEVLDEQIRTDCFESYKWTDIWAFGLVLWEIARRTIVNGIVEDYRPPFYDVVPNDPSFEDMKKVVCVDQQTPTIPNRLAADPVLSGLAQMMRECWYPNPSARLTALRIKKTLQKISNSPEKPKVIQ
T6 sequence (P00533 25-1210 T790M/L858R): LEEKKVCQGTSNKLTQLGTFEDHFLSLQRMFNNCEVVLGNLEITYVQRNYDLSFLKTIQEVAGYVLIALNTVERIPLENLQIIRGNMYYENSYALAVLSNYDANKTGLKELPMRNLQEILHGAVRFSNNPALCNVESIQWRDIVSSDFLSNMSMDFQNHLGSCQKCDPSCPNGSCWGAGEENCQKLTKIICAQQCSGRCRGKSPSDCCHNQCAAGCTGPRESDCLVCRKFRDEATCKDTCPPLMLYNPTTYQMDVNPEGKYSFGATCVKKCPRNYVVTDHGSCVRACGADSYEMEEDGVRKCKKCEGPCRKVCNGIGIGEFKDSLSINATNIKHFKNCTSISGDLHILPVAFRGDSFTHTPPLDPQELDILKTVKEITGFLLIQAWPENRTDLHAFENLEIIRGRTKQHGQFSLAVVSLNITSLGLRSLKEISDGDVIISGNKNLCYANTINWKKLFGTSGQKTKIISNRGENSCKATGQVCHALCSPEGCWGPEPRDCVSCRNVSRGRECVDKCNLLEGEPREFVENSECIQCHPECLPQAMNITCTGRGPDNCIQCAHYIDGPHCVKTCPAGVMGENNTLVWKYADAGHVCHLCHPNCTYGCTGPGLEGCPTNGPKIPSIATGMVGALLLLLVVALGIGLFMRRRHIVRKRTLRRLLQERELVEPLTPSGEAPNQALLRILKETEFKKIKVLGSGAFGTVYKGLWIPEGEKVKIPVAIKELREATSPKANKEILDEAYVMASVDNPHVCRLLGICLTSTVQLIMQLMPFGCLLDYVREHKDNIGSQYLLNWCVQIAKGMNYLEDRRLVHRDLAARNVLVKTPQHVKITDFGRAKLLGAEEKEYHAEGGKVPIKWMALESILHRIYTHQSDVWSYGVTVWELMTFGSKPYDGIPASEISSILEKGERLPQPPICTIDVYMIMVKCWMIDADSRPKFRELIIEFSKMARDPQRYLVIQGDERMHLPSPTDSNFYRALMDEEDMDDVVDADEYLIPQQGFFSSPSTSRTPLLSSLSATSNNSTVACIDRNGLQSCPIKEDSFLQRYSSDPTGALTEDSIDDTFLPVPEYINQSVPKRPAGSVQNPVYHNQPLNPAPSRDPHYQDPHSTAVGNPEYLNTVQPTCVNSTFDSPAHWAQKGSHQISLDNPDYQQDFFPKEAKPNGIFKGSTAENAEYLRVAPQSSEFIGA
T30 sequence (Q9Y243 whole entry): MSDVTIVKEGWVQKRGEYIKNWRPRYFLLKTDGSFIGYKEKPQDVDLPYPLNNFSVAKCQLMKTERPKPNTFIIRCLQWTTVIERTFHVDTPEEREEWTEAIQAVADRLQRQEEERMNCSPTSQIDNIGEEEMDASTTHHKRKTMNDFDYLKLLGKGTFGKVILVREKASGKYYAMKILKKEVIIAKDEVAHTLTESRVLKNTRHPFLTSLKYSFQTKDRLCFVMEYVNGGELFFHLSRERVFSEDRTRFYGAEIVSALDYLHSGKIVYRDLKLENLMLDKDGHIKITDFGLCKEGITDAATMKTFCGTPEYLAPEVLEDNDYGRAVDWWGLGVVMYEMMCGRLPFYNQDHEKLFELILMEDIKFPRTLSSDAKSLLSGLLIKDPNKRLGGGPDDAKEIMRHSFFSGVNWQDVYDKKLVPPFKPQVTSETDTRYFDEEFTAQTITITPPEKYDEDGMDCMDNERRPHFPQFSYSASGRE
T16 sequence (P45984 whole entry): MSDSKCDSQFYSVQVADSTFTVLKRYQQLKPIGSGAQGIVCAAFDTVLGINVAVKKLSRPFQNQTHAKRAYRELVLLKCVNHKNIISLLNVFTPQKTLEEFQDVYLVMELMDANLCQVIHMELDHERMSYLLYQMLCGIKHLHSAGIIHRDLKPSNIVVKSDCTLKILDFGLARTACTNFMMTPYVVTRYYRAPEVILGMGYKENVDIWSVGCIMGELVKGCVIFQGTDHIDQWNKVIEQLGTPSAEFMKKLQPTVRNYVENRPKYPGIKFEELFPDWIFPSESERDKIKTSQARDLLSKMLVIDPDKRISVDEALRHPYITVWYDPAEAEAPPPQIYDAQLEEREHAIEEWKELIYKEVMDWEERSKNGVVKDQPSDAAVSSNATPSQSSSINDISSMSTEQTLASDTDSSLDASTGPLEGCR
T7 sequence (P07949 29-1114 M918T): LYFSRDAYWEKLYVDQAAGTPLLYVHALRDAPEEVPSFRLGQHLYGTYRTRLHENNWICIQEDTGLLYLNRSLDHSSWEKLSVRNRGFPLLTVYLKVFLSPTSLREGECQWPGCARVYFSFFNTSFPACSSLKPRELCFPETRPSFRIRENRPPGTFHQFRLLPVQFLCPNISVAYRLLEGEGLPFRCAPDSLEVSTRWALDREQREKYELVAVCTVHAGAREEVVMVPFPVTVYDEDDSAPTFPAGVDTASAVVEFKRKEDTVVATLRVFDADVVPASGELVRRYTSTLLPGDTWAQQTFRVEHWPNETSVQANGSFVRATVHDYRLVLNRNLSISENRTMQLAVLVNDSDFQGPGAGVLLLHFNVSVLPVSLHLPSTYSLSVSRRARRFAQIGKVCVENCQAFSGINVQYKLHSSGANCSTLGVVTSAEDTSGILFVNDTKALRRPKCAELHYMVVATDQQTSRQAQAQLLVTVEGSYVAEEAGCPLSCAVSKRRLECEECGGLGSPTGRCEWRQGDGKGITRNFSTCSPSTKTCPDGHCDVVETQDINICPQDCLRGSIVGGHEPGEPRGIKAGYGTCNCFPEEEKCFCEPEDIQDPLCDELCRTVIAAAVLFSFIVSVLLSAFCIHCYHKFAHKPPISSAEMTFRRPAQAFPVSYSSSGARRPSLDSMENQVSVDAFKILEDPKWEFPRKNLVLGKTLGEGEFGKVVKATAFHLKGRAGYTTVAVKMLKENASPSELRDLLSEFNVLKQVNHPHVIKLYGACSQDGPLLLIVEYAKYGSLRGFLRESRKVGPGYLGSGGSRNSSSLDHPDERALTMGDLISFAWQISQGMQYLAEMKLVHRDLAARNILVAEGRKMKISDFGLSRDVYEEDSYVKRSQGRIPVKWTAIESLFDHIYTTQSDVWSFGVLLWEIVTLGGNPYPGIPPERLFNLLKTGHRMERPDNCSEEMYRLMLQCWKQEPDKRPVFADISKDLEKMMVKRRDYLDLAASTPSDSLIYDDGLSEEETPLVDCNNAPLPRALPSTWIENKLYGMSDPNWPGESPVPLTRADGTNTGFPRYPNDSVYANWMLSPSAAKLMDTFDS

In the case of `CN(C)C(=O)c1cc2cnc(Nc3ccc(-c4csc5c(=O)cc(N6CCOCC6)oc45)cc3)nc2n1C1CCCC1` [SRX3177], the IC50 [1] is reported as 830 nM, the remaining binding at 1 µM (kinome (kinase panel) [2]) is reported as 98% and the remaining binding at 1 µM (kinome (kinase panel) [3]) is reported as 93%. For the same compound, the remaining binding at 1 µM (kinome (kinase panel) [4]) was 88%, the remaining binding at 1 µM (kinome (kinase panel) [5]) was 94% and the remaining binding at 1 µM (kinome (kinase panel) [6]) was 78%. For the same compound, the remaining binding at 1 µM (kinome (kinase panel) [7]) was 58%, the remaining binding at 1 µM (kinome (kinase panel) [8]) was 100% and the remaining binding at 1 µM (kinome (kinase panel) [9]) was 97%. For the same compound, the remaining binding at 1 µM (kinome (kinase panel) [10]) was 100%, the remaining binding at 1 µM (kinome (kinase panel) [11]) was 97% and the remaining binding at 1 µM (kinome (kinase panel) [12]; JAK1(JH1domain-catalytic)) was 96%. For the same compound, the remaining binding at 1 µM (kinome (kinase panel) [12]; JAK1(JH2domain-pseudokinase)) was 9.5%, the remaining binding at 1 µM (kinome (kinase panel) [13]) was 97% and the remaining binding at 1 µM (kinome (kinase panel) [14]) was 100%. It also gave a remaining binding at 1 µM (kinome (kinase panel) [15]) of 100%, a remaining binding at 1 µM (kinome (kinase panel) [16]) of 79% and a remaining binding at 1 µM (kinome (kinase panel) [17]) of 47%. It also gave a remaining binding at 1 µM (kinome (kinase panel) [18]) of 97%, a remaining binding at 1 µM (kinome (kinase panel) [19]) of 100% and a remaining binding at 1 µM (kinome (kinase panel) [20]) of 51%. It also gave a remaining binding at 1 µM (kinome (kinase panel) [21]) of 41%, a remaining binding at 1 µM (kinome (kinase panel) [22]) of 79% and a remaining binding at 1 µM (kinome (kinase panel) [23]) of 99%. It also gave a remaining binding at 1 µM (kinome (kinase panel) [24]) of 36%, a remaining binding at 1 µM (kinome (kinase panel) [25]) of 98% and a remaining binding at 1 µM (kinome (kinase panel) [26]) of 76%. For the same compound, the remaining binding at 1 µM (kinome (kinase panel) [27]) was 93%, the remaining binding at 1 µM (kinome (kinase panel) [28]) was 100% and the remaining binding at 1 µM (kinome (kinase panel) [29]) was 89%. The remaining binding at 1 µM (kinome (kinase panel) [30]) was 99%, the remaining binding at 1 µM (kinome (kinase panel) [31]) was 100% and the “specificity in BROMOscan” value (bromodomain panel) was “lack of off-targeting”.
